Test results: ChEMBL document CHEMBL1138025, “Nocathiacin I analogues: synthesis, in vitro and in vivo biological activity of novel semi-synthetic thiazolyl peptide antibiotics” (Bioorg Med Chem Lett, 2004)
≈ marks a conversion by molar mass, not a printed value.

Key:
[1] = molecular target: Neuronal acetylcholine receptor; alpha4/beta2 (Rattus norvegicus, UniProt P09483+P12390); experiment: Inhibition of [3H]- cytisine binding to Nicotinic acetylcholine receptor alpha4-beta2 of rat cortical membranes; assay type: cell membranes, Membrane
[2] = organism: Mus musculus; experiment: Effective concentration showing antinociception activity was determined by tail flick test in mouse; assay type: functional, organism-based
[3] = test system: Staphylococcus aureus; experiment: In vitro antibacterial activity against methicillin-sensitive Staphylococcus aureus A15090; assay type: functional
[4] = test system: Enterococcus faecalis; experiment: In vitro antibacterial activity against methicillin-sensitive Enterococcus faecalis A20688; assay type: functional
[5] = test system: Streptococcus pneumoniae; experiment: In vitro antibacterial activity against penicillin-resistant Streptococcus pneumoniae A28272; assay type: functional
[6] = test system: Mus musculus; experiment: In vivo efficacy (PD50) against lethal Staphylococcus aureus systemic infection model in mice; assay type: functional; conditions: read-out: PD50
[7] = Equilibrium water solubility at pH 2.7; assay type: physicochemical
[8] = Equilibrium water solubility at pH 3.9; assay type: physicochemical
[9] = Equilibrium water solubility at pH 3.3; assay type: physicochemical
[10] = Equilibrium water solubility at pH 3.2; assay type: physicochemical
[11] = Equilibrium water solubility at pH 2.8; assay type: physicochemical
[12] = Equilibrium water solubility at pH 3.5; assay type: physicochemical
[13] = Equilibrium water solubility at pH 3.8; assay type: physicochemical
[14] = Equilibrium water solubility at pH 2.6; assay type: physicochemical
[15] = Equilibrium water solubility at pH 4.0; assay type: physicochemical
[16] = Equilibrium water solubility at pH 2.9; assay type: physicochemical

Chain of Neuronal acetylcholine receptor; alpha4/beta2 (P09483 whole entry): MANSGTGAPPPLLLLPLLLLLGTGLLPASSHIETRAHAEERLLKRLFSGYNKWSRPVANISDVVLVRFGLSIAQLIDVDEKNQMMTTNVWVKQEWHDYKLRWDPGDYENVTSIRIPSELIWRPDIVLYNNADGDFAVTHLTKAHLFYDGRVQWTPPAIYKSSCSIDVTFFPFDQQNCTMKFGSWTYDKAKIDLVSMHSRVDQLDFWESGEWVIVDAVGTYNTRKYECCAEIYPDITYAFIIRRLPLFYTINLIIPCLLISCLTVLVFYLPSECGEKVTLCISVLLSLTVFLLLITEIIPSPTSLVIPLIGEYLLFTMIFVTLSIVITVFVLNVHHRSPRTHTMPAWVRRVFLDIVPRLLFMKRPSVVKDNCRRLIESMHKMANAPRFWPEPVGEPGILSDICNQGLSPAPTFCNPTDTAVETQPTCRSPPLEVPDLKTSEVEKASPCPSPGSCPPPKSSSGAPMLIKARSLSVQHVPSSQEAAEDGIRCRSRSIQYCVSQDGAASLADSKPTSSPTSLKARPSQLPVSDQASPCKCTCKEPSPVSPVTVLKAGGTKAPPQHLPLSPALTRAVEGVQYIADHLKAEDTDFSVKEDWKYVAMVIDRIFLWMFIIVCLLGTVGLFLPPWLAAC
Chain of Neuronal acetylcholine receptor; alpha4/beta2 (P12390 whole entry): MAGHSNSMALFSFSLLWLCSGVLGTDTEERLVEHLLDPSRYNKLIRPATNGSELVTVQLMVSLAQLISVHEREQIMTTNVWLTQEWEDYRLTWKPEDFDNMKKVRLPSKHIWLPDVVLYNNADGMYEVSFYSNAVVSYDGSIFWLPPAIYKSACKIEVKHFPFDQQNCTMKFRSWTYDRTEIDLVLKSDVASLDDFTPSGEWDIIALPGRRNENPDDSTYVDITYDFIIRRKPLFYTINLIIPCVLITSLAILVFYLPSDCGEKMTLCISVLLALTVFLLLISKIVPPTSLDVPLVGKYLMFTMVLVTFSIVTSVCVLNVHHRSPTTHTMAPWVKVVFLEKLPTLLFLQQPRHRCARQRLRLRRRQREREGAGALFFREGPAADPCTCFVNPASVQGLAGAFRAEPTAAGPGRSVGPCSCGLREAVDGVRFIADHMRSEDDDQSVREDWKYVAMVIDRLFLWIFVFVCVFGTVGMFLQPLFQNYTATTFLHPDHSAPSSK

With `Clc1ccc(C2CC3CCC2CN3)cn1` (stereo unspecified) the Ki [1] was 0.34 nM and the EC50 [2] was 1.4 mg/kg.

In the case of `CO/C(C)=C1/NC(=O)[C@H]([C@@H](C)O)NC(=O)c2csc(n2)-c2cc(O)c(-c3nc(C(=O)NC(CN4CCN(C(C)=O)CC4)C(N)=O)cs3)nc2-c2csc(n2)[C@@H]2COC(=O)c3c4c5c(cccc5n3O)COC(=O)[C@@H](O[C@H]3C[C@](C)(O)[C@H](N(C)C)[C@H](C)O3)[C@@H](OC4)[C@H](NC(=O)c3csc1n3)c1nc(cs1)C(=O)N2` (stereo partly specified), the MIC [3] is reported as 0.5 µg/mL (≈ 0.319 µM), the MIC [4] is reported as 2 µg/mL (≈ 1.28 µM) and the MIC [5] is reported as 0.03 µg/mL (≈ 0.0192 µM). For the same molecule, the ED50 [6] was 5 mg/kg and the solubility thermodynamic [7] was > 2400 µg/mL.

Work on `CO/C(C)=C1/NC(=O)[C@H]([C@@H](C)O)NC(=O)c2csc(n2)-c2cc(O)c(-c3nc(C(=O)NC(CN(C)CCCn4ccnc4)C(N)=O)cs3)nc2-c2csc(n2)[C@@H]2COC(=O)c3c4c5c(cccc5n3O)COC(=O)[C@@H](O[C@H]3C[C@](C)(O)[C@H](N(C)C)[C@H](C)O3)[C@@H](OC4)[C@H](NC(=O)c3csc1n3)c1nc(cs1)C(=O)N2` (stereo partly specified) yielded an MIC [3] of 0.12 µg/mL (≈ 0.0761 µM), an MIC [4] of 0.12 µg/mL (≈ 0.0761 µM) and an MIC [5] of 0.01 µg/mL (≈ 0.00634 µM). For the same molecule, the ED50 [6] was 5 mg/kg and the solubility thermodynamic [8] was > 10600 µg/mL.

`CO/C(C)=C1/NC(=O)[C@H]([C@@H](C)O)NC(=O)c2csc(n2)-c2cc(O)c(-c3nc(C(=O)NC(CN4CCN(CC(=O)O)CC4)C(N)=O)cs3)nc2-c2csc(n2)[C@@H]2COC(=O)c3c4c5c(cccc5n3O)COC(=O)[C@@H](O[C@H]3C[C@](C)(O)[C@H](N(C)C)[C@H](C)O3)[C@@H](OC4)[C@H](NC(=O)c3csc1n3)c1nc(cs1)C(=O)N2` (stereo partly specified) showed an MIC [3] of 1 µg/mL (≈ 0.632 µM), an MIC [4] of 1 µg/mL (≈ 0.632 µM) and an MIC [5] of 0.03 µg/mL (≈ 0.019 µM). For the same molecule, the ED50 [6] was > 10 mg/kg and the solubility thermodynamic [9] was > 2600 µg/mL.

`CO/C(C)=C1/NC(=O)[C@H]([C@@H](C)O)NC(=O)c2csc(n2)-c2cc(O)c(-c3nc(C(=O)NC(CNCCOCCOCCO)C(N)=O)cs3)nc2-c2csc(n2)[C@@H]2COC(=O)c3c4c5c(cccc5n3O)COC(=O)[C@@H](O[C@H]3C[C@](C)(O)[C@H](N(C)C)[C@H](C)O3)[C@@H](OC4)[C@H](NC(=O)c3csc1n3)c1nc(cs1)C(=O)N2` (stereo partly specified) gave an MIC [3] of 0.25 µg/mL (≈ 0.158 µM), an MIC [4] of 0.5 µg/mL (≈ 0.315 µM) and an MIC [5] of 0.06 µg/mL (≈ 0.0378 µM). For the same molecule, the ED50 [6] was 4.6 mg/kg and the solubility thermodynamic [9] was > 3100 µg/mL.

With `CO/C(C)=C1/NC(=O)[C@H]([C@@H](C)O)NC(=O)c2csc(n2)-c2cc(O)c(-c3nc(C(=O)NC(CNCCOCCOCCOCCN)C(N)=O)cs3)nc2-c2csc(n2)[C@@H]2COC(=O)c3c4c5c(cccc5n3O)COC(=O)[C@@H](O[C@H]3C[C@](C)(O)[C@H](N(C)C)[C@H](C)O3)[C@@H](OC4)[C@H](NC(=O)c3csc1n3)c1nc(cs1)C(=O)N2` (stereo partly specified) the MIC [3] was 1 µg/mL (≈ 0.614 µM), the MIC [4] was 1 µg/mL (≈ 0.614 µM) and the MIC [5] was 0.25 µg/mL (≈ 0.153 µM). For the same molecule, the ED50 [6] was > 10 mg/kg and the solubility thermodynamic [10] was > 2800 µg/mL.

Work on `CO/C(C)=C1/NC(=O)[C@H]([C@@H](C)O)NC(=O)c2csc(n2)-c2cc(O)c(-c3nc(C(=O)NC(CN(C)CCC(=O)Nc4ccncc4)C(N)=O)cs3)nc2-c2csc(n2)[C@@H]2COC(=O)c3c4c5c(cccc5n3O)COC(=O)[C@@H](O[C@H]3C[C@](C)(O)[C@H](N(C)C)[C@H](C)O3)[C@@H](OC4)[C@H](NC(=O)c3csc1n3)c1nc(cs1)C(=O)N2` (stereo partly specified) yielded an MIC [3] of 0.5 µg/mL (≈ 0.309 µM), an MIC [4] of 0.5 µg/mL (≈ 0.309 µM) and an MIC [5] of 0.03 µg/mL (≈ 0.0186 µM). The ED50 [6] was 8.7 mg/kg and the solubility thermodynamic [11] was > 3000 µg/mL.

Work on `CO/C(C)=C1/NC(=O)[C@H]([C@@H](C)O)NC(=O)c2csc(n2)-c2cc(O)c(-c3nc(C(=O)NC(CN(C)C)C(N)=O)cs3)nc2-c2csc(n2)[C@@H]2COC(=O)c3c4c5c(cccc5n3O)COC(=O)[C@@H](O[C@H]3C[C@](C)(O)[C@H](N(C)C)[C@H](C)O3)[C@@H](OC4)[C@H](NC(=O)c3csc1n3)c1nc(cs1)C(=O)N2` (stereo partly specified) yielded an MIC [3] of 0.06 µg/mL (≈ 0.0405 µM), an MIC [4] of 0.12 µg/mL (≈ 0.0809 µM) and an MIC [5] of 0.03 µg/mL (≈ 0.0202 µM). For the same molecule, the ED50 [6] was < 0.62 mg/kg and the solubility thermodynamic [9] was > 10000 µg/mL.

In the case of `COCCOCCOCCOCCN1CCN(CC(NC(=O)c2csc(-c3nc4c(cc3O)-c3nc(cs3)C(=O)N[C@@H]([C@@H](C)O)C(=O)N/C(=C(\C)OC)c3nc(cs3)C(=O)N[C@@H]3c5nc(cs5)C(=O)N[C@@H](COC(=O)c5c6c7c(cccc7n5O)COC(=O)[C@@H](O[C@H]5C[C@](C)(O)[C@H](N(C)C)[C@H](C)O5)[C@H]3OC6)c3nc-4cs3)n2)C(N)=O)CC1` (stereo partly specified), the MIC [3] is reported as 0.5 µg/mL (≈ 0.292 µM), the MIC [4] is reported as 4 µg/mL (≈ 2.33 µM) and the MIC [5] is reported as 0.25 µg/mL (≈ 0.146 µM). The ED50 [6] was 1.5 mg/kg and the solubility thermodynamic [12] was > 1500 µg/mL.

With `CO/C(C)=C1/NC(=O)[C@H]([C@@H](C)O)NC(=O)c2csc(n2)-c2cc(O)c(-c3nc(C(=O)NC(CN4CCC(O)CC4)C(N)=O)cs3)nc2-c2csc(n2)[C@@H]2COC(=O)c3c4c5c(cccc5n3O)COC(=O)[C@@H](O[C@H]3C[C@](C)(O)[C@H](N(C)C)[C@H](C)O3)[C@@H](OC4)[C@H](NC(=O)c3csc1n3)c1nc(cs1)C(=O)N2` (stereo partly specified) the MIC [3] was 0.06 µg/mL (≈ 0.039 µM), the MIC [4] was 0.25 µg/mL (≈ 0.162 µM) and the MIC [5] was 0.007 µg/mL (≈ 0.00455 µM). The ED50 [6] was 2.1 mg/kg and the solubility thermodynamic [13] was > 2700 µg/mL.

In the case of `CNCCNCC(NC(=O)c1csc(-c2nc3c(cc2O)-c2nc(cs2)C(=O)N[C@@H]([C@@H](C)O)C(=O)N/C(=C(\C)OC)c2nc(cs2)C(=O)N[C@@H]2c4nc(cs4)C(=O)N[C@@H](COC(=O)c4c5c6c(cccc6n4O)COC(=O)[C@@H](O[C@H]4C[C@](C)(O)[C@H](N(C)C)[C@H](C)O4)[C@H]2OC5)c2nc-3cs2)n1)C(N)=O` (stereo partly specified), the MIC [3] is reported as 0.25 µg/mL (≈ 0.165 µM), the MIC [4] is reported as 0.5 µg/mL (≈ 0.331 µM) and the MIC [5] is reported as 0.03 µg/mL (≈ 0.0198 µM). For the same molecule, the solubility thermodynamic [14] was > 2500 µg/mL.

In the case of `C=C(NC(=O)c1csc(-c2nc3c(cc2O)-c2nc(cs2)C(=O)N[C@@H]([C@@H](C)O)C(=O)N/C(=C(\C)OC)c2nc(cs2)C(=O)N[C@@H]2c4nc(cs4)C(=O)N[C@@H](COC(=O)c4c5c6c(cccc6n4O)COC(=O)C(O[C@H]4C[C@](C)(O)[C@H](N(C)C)[C@H](C)O4)[C@H]2OC5)c2nc-3cs2)n1)C(N)=O` (stereo partly specified), the MIC [3] is reported as 0.007 µg/mL (≈ 0.00487 µM), the MIC [4] is reported as 0.03 µg/mL (≈ 0.0209 µM) and the MIC [5] is reported as 0.001 µg/mL (≈ 0.000696 µM). It also gave an ED50 [6] of 0.8 mg/kg and a solubility thermodynamic [15] of 340 µg/mL (≈ 237 µM).

Work on `CNCC(NC(=O)c1csc(-c2nc3c(cc2O)-c2nc(cs2)C(=O)N[C@@H]([C@@H](C)O)C(=O)N/C(=C(\C)OC)c2nc(cs2)C(=O)N[C@@H]2c4nc(cs4)C(=O)N[C@@H](COC(=O)c4c5c6c(cccc6n4O)COC(=O)[C@@H](O[C@H]4C[C@](C)(O)[C@H](N(C)C)[C@H](C)O4)[C@H]2OC5)c2nc-3cs2)n1)C(N)=O` (stereo partly specified) yielded an MIC [3] of 2 µg/mL (≈ 1.36 µM), an MIC [4] of 8 µg/mL (≈ 5.45 µM) and an MIC [5] of 0.001 µg/mL (≈ 0.000681 µM). For the same molecule, the ED50 [6] was 1.6 mg/kg and the solubility thermodynamic [16] was > 3500 µg/mL.

Work on `CO/C(C)=C1/NC(=O)C([C@@H](C)O)NC(=O)c2csc(n2)-c2cc(O)c(-c3nc(C(=O)NC(CNCCCn4ccnc4)C(N)=O)cs3)nc2-c2csc(n2)[C@@H]2COC(=O)c3c4c5c(cccc5n3O)COC(=O)[C@@H](O[C@H]3C[C@](C)(O)[C@H](N(C)C)[C@H](C)O3)[C@@H](OC4)[C@H](NC(=O)c3csc1n3)c1nc(cs1)C(=O)N2` (stereo partly specified) yielded an MIC [3] of 0.5 µg/mL (≈ 0.32 µM), an MIC [4] of 1 µg/mL (≈ 0.64 µM) and an MIC [5] of 0.06 µg/mL (≈ 0.0384 µM). The ED50 [6] was 10 mg/kg and the solubility thermodynamic [10] was > 10000 µg/mL.

In the case of `CO/C(C)=C1/NC(=O)[C@H]([C@@H](C)O)NC(=O)c2csc(n2)-c2cc(O)c(-c3nc(C(=O)NC(CNCCN4CCN(C)CC4)C(N)=O)cs3)nc2-c2csc(n2)[C@@H]2COC(=O)c3c4c5c(cccc5n3O)COC(=O)[C@@H](O[C@H]3C[C@](C)(O)[C@H](N(C)C)[C@H](C)O3)[C@@H](OC4)[C@H](NC(=O)c3csc1n3)c1nc(cs1)C(=O)N2` (stereo partly specified), the MIC [3] is reported as 0.25 µg/mL (≈ 0.158 µM), the MIC [4] is reported as 4 µg/mL (≈ 2.53 µM) and the MIC [5] is reported as 0.01 µg/mL (≈ 0.00633 µM). For the same molecule, the ED50 [6] was > 10 mg/kg and the solubility thermodynamic [11] was > 2900 µg/mL.
